# Reference: patent US12319652B2, “Salts and solid forms of (R)-1-(5-methoxy-1H-indol-1-yl)-N,N-dimethylpropan-2-amine” (priority 2021, dated 2025)
# How the values were obtained:
# [1] = Suspension equilibration of compound 1 fumarate at 20 and 40° C.; conditions: 10 vol total
# Method: Amorphous compound 1 fumarate was subjected to this technique at ambient temperature (20° C.) and at elevated temperature (40° C.), in a diverse range of solvents.
# Amorphous compound 1 fumarate underwent suspension equilibration in 19 single solvents at two different temperature set points (20 and 40° C.). The products were isolated by centrifugation and analysed wet by XRPD. After drying, the samples were reanalyzed.
# At 20° C., dissolution or gumming was initially observed in the presence of most solvents; after several days, five of the gums had mobilised to give stable suspensions (refer to entries, Table 61). The products were isolated via centrifugation and the wet pellets were analysed by XRPD, oven dried and reanalysed by XRPD, TGA, DSC and ^1H NMR.
# The companion screen performed at 40° C., yielded no hits. Consequently, the screen was repeated in the presence of an appropriate polarity modifier (either heptane or tBME), to ensure activity of the solvent was maintained while generating stable suspensions from the onset (refer to Table 62).
# Separate portions of compound 1 (ca 50 mg, 1.0 wt.) were charged to separate vessels. The appropriate solvents (e.g. 250 μl, 5.0 vol), as described in Table and Table were charged to the vessels and the mixtures were stirred for several days at their relevant temperatures e.g. 20 to 40° C. After this time the products were cooled, isolated by centrifugation, analyzed as wet pellet by XRPD and dried under reduced pressure at 40° C. and re-analyzed by XRPD and companion analyses for evidence of alternative crystalline forms (FIGS. 74-77).
# [2] = Heat-up/cool down (HUCD) crystallization of compound 1 Fumarate in different solvents
# Source text: Crystallisation from different solvents can be a useful method to investigate alternative polymorphic forms. This crystallisation screen of compound 1·Fumarate could also be used to identify potential conditions for future scale-up crystallisations to control the form outcome. Amorphous compound 1 fumarate (batch 1) was crystallised from several solvents (refer to Table 64). Only entries N1 AND N2 remained in solution when cooled down. The XRPD diffractograms of the rest, which delivered solids, matched monofumarate Form A when oven dried (FIG. 103).
# Separate portions of compound 1 Fumarate (75 mg, 1.0 wt.) were charged to separate vessels. The appropriate solvents (750 μl) were charged to the relevant vessels and subsequent charges of the appropriate co-solvent were made to accomplish dissolution. The solutions were cooled to 18 to 23° C. and allowed to stand undisturbed, until crystallization was judged complete. After this time the products were isolated by centrifugation, washed with recycled maturation solvent, dried under reduced pressure at 40° C. and analyzed by XRPD for evidence of alternative crystalline forms (FIG. 103).
# [3] = Heptane (7 parts)/2-Methyl THF (3 part)
# [4] = Heptane (7 parts)/2-Propanol (3 part)
# [5] = Heptane (7 parts)/Acetone (3 part)
# [6] = Heptane (7 parts)/Acetonitrile (3 part)
# [7] = Heptane (7 parts)/Chlorobenzene (3 part)
# [8] = Heptane (7 parts)/Dichloromethane (3 part)
# [9] = Heptane (7 parts)/Ethanol (3 part)
# [10] = Heptane (7 parts)/Ethyl acetate (3 part)
# [11] = Heptane (7 parts)/Ethyl formate (3 part)
# [12] = Heptane (7 parts)/Heptane (3 part)
# [13] = Heptane (7 parts)/Isopropyl acetate (3 part)
# [14] = Heptane (7 parts)/Methanol (3 part)
# [15] = Heptane (7 parts)/Methyl acetate (3 part)
# [16] = Heptane (7 parts)/Methylethyl ketone (3 part)
# [17] = Heptane (7 parts)/Nitromethane (3 part)
# [18] = Heptane (7 parts)/Tetrahydrofuran (3 part)
# [19] = Heptane (7 parts)/Toluene (3 part)
# [20] = Heptane (7 parts)/Water (3 part)
# [21] = Heptane (7 parts)/tert-Butylmethyl ether (3 part)
# [22] = Heptane (5 vol) + 2-Methyl THF 380 μl
# [23] = Heptane (5 vol) + 2-Propanol 120 μl
# [24] = Heptane (5 vol) + Acetone 200 μl
# [25] = Heptane (5 vol) + Butanol 100 μl
# [26] = Heptane (5 vol) + Dichloromethane 160 μl
# [27] = Heptane (5 vol) + Diethyl ether 800 μl
# [28] = Heptane (5 vol) + Dioxane 240 μl
# [29] = Heptane (5 vol) + Ehtyl acetate 420 μl
# [30] = Heptane (5 vol) + Ethanol 180 μl
# [31] = Heptane (5 vol) + Isopropyl acetate 660 μl
# [32] = Heptane (5 vol) + Methylethyl ketone 100 μl
# [33] = Heptane (5 vol) + Tetrahydrofuran 300 μl
# [34] = no precipitant solvent (—), Toluene 800 μl
smiles,measurement,setting,value
"COc1ccc2c(ccn2C[C@@H](C)[NH+](C)C)c1.O=C(O)/C=C/C(=O)O [Compound 1 fumarate, (R)-1-(5-methoxy-1H-indol-1-yl)-N,N-dimethylpropan-2-amine fumarate]",Observations (t = 0 @ 40° C.),[1]; [3],Gum
same,XRPD (post oven dried),[1]; [3],Pattern #1
same,XRPD (wet),[1]; [3],Pattern #1
same,Observations (t = 3 d) @ 40° C.),[1]; [4],Suspension
same,XRPD (post oven dried),[1]; [4],Pattern #1
same,XRPD (wet),[1]; [4],Pattern #1
same,Observations (t = 0 @ 40° C.),[1]; [5],Gum
same,Observations (t = 1 d) @ 40° C.),[1]; [5],Gum
same,Observations (t = 3 d) @ 40° C.),[1]; [5],Gum/oil
same,Observations (t = 7 d @ 40° C.),[1]; [5],Gum
same,XRPD (post oven dried),[1]; [5],Pattern #1
same,XRPD (wet),[1]; [5],Pattern #1
same,Observations (t = 0 @ 40° C.),[1]; [6],Oil (biphasic)
same,Observations (t = 1 d) @ 40° C.),[1]; [6],Oil (biphasic)
same,Observations (t = 3 d) @ 40° C.),[1]; [6],Oil (biphasic)
same,Observations (t = 7 d @ 40° C.),[1]; [6],Oil (biphasic)
same,Observations (t = 0 @ 40° C.),[1]; [7],Gum
same,Observations (t = 1 d) @ 40° C.),[1]; [7],Gum
same,XRPD (post oven dried),[1]; [7],Pattern #1
same,XRPD (wet),[1]; [7],Pattern #1
same,XRPD (post oven dried),[1]; [8],Pattern #1
same,XRPD (wet),[1]; [8],Pattern #1
same,Observations (t = 3 d) @ 40° C.),[1]; [9],Suspension
same,XRPD (post oven dried),[1]; [9],Pattern #1
same,XRPD (wet),[1]; [9],Pattern #1
same,Observations (t = 0 @ 40° C.),[1]; [10],Gum
same,Observations (t = 1 d) @ 40° C.),[1]; [10],Gum
same,Observations (t = 3 d) @ 40° C.),[1]; [10],Gum
same,Observations (t = 7 d @ 40° C.),[1]; [10],Oil/gum
same,Observations (t = 3 d) @ 40° C.),[1]; [11],Gum
same,XRPD (post oven dried),[1]; [11],Pattern #1
same,XRPD (wet),[1]; [11],Pattern #1
same,Observations (t = 0 @ 40° C.),[1]; [12],Gum
same,Observations (t = 1 d) @ 40° C.),[1]; [12],Gum
same,XRPD (post oven dried),[1]; [12],Pattern #1
same,XRPD (wet),[1]; [12],Pattern #1
same,Observations (t = 0 @ 40° C.),[1]; [13],Gum
same,XRPD (post oven dried),[1]; [13],Pattern #1
same,XRPD (wet),[1]; [13],Pattern #1
same,Observations (t = 0 @ 40° C.),[1]; [14],Oil (biphasic)
same,Observations (t = 1 d) @ 40° C.),[1]; [14],Oil (biphasic)
same,Observations (t = 3 d) @ 40° C.),[1]; [14],Biphasic (oil)
same,Observations (t = 7 d @ 40° C.),[1]; [14],Oil (biphasic)
same,XRPD (post oven dried),[1]; [14],Pattern #1
same,XRPD (wet),[1]; [14],Pattern #1
same,XRPD (post oven dried),[1]; [15],Pattern #1
same,XRPD (wet),[1]; [15],Pattern #1
same,Observations (t = 0 @ 40° C.),[1]; [16],Gum
same,XRPD (post oven dried),[1]; [16],Pattern #1
same,XRPD (wet),[1]; [16],Pattern #1
same,Observations (t = 0 @ 40° C.),[1]; [17],Oil (biphasic)
same,Observations (t = 1 d) @ 40° C.),[1]; [17],Oil (biphasic)
same,Observations (t = 3 d) @ 40° C.),[1]; [17],Oil (biphasic)
same,Observations (t = 0 @ 40° C.),[1]; [18],Gum
same,XRPD (post oven dried),[1]; [18],Pattern #1
same,XRPD (wet),[1]; [18],Pattern #1
same,Observations (t = 0 @ 40° C.),[1]; [19],Gum
same,Observations (t = 1 d) @ 40° C.),[1]; [19],Gum
same,XRPD (post oven dried),[1]; [19],Pattern #1
same,XRPD (wet),[1]; [19],Pattern #1
same,Observations (t = 0 @ 40° C.),[1]; [20],Oil (biphasic)
same,Observations (t = 1 d) @ 40° C.),[1]; [20],Oil (biphasic)
same,Observations (t = 3 d) @ 40° C.),[1]; [20],Oil (biphasic)
same,Observations (t = 7 d @ 40° C.),[1]; [20],Oil (biphasic)
same,Observations (t = 0 @ 40° C.),[1]; [21],Gum
same,Observations (t = 1 d) @ 40° C.),[1]; [21],Gum
same,Observations (t = 3 d) @ 40° C.),[1]; [21],Gum
same,Observations (t = 7 d @ 40° C.),[1]; [21],Oil/gum
same,Form XRPD (oven dried),[2]; [22],Pattern 1
same,Observations (t = 0 @ T = 20° C.),[2]; [22],suspension
same,Observations (t = 3 d @ 20° C.),[2]; [22],suspension
same,Form XRPD (oven dried),[2]; [23],Pattern 1
same,Observations (t = 0 @ T = 20° C.),[2]; [23],suspension
same,Observations (t = 3 d @ 20° C.),[2]; [23],suspension
same,Form XRPD (oven dried),[2]; [24],Pattern 1
same,Observations (t = 0 @ T = 20° C.),[2]; [24],suspension
same,Observations (t = 3 d @ 20° C.),[2]; [24],suspension
same,Form XRPD (oven dried),[2]; [25],Pattern 1
same,Observations (t = 0 @ T = 20° C.),[2]; [25],suspension
same,Observations (t = 3 d @ 20° C.),[2]; [25],suspension
same,Form XRPD (oven dried),[2]; Heptane (5 vol) + CPME 800 μl,Pattern 1
same,Observations (t = 0 @ T = 20° C.),[2]; Heptane (5 vol) + CPME 800 μl,gum
same,Observations (t = 3 d @ 20° C.),[2]; Heptane (5 vol) + CPME 800 μl,gum
same,Observations (t = 0 @ T = 20° C.),[2]; [26],suspension
same,Observations (t = 3 d @ 20° C.),[2]; [26],suspension
same,Form XRPD (oven dried),[2]; [27],Pattern 1
same,Observations (t = 0 @ T = 20° C.),[2]; [27],gum
same,Observations (t = 3 d @ 20° C.),[2]; [27],gum
same,Observations (t = 0 @ T = 20° C.),[2]; [28],suspension
same,Observations (t = 3 d @ 20° C.),[2]; [28],suspension
same,Form XRPD (oven dried),[2]; [29],Pattern 1
same,Observations (t = 0 @ T = 20° C.),[2]; [29],suspension
same,Observations (t = 3 d @ 20° C.),[2]; [29],suspension
same,Form XRPD (oven dried),[2]; [30],Pattern 1
same,Observations (t = 0 @ T = 20° C.),[2]; [30],suspension
same,Form XRPD (oven dried),[2]; [31],Pattern 1
same,Observations (t = 0 @ T = 20° C.),[2]; [31],suspension
same,Observations (t = 3 d @ 20° C.),[2]; [31],suspension
same,Form XRPD (oven dried),[2]; Heptane (5 vol) + MIBK 420 μl,Pattern 1
same,Observations (t = 0 @ T = 20° C.),[2]; Heptane (5 vol) + MIBK 420 μl,suspension
same,Observations (t = 3 d @ 20° C.),[2]; Heptane (5 vol) + MIBK 420 μl,suspension
same,Form XRPD (oven dried),[2]; [32],Pattern 1
same,Observations (t = 3 d @ 20° C.),[2]; [32],suspension
same,Form XRPD (oven dried),[2]; [33],Pattern 1
same,Observations (t = 0 @ T = 20° C.),[2]; [33],suspension
same,Observations (t = 3 d @ 20° C.),[2]; [33],suspension
same,Observations (t = 0 @ T = 20° C.),[2]; Water (5 vol) + Ethanol 80 μl,solution
same,Form XRPD (oven dried),[2]; [34],Pattern 1
same,Observations (t = 0 @ T = 20° C.),[2]; [34],gum
same,Observations (t = 3 d @ 20° C.),[2]; [34],gum
